Results from US12612395B2, “Rocaglate derivatives and uses thereof” (TRUSTEES OF BOSTON UNIVERSITY, priority 2023, dated 2026).
pEC50: −log10 of the molar value.

How the values were obtained:
GBM0308 cells (CSCs) = experiment: Annexin V/PI flow cytometry apoptosis assay; format: cell-based, human; details: 1 μM, 12 h and 24 h
Method: (§1) To gain additional mechanistic insights into GBM cell death induced by (−)-20, the inventors conducted several functional assays. The inventors first derived a single neurosphere from GBM0308 cells cultured in stem cell conditions, which was treated with either DMSO or (−)-20 at varying doses for three days followed by staining with PI and Hoechst dyes and subsequent imaging. […] To capture the kinetics of apoptotic events, the inventors employed caspase 3/7 staining of GBM0308 neurospheres treated with either DMSO or (−)-20 and subsequently evaluated at three timepoints over a 48-hour period. […] (FIG. 5B).
(§2) Apoptosis Assays: For the Caspase 3/7 assay single neurospheres were generated as described above. On day four, neurospheres were treated with compound (−)-20. Apoptosis in treated tumorspheres was assessed using Nexcelom's ViaStain™ Live Caspase 3/7 Detection kit (Nexcelcom, CS1-V0002-1). […] Plates were imaged using the “neurosphere 1+Mask” application to measure fluorescent intensities of the caspase dye, as described previously.^70 Apoptosis was quantified using the FITC Annexin V apoptosis detection kit II (Invitrogen). […] At 12 h and 24 h after treatment, neurospheres were gently dissociated by using trypsin 0.025%, stained with PI and FITC and analyzed by flow cytometery using a Bio-Rad ZE5 Cell Analyzer.

GBM0308 neurospheres [1] = experiment: Caspase 3/7 staining of neurospheres; format: cell-based, human; details: 1 μM, 24- and 48-hour timepoints
Method: as §1, §2

GBM0308 stem cells = experiment: RNA sequencing of treated GBM CSCs; format: cell-based, human; details: 0.1 μM and 1 μM, 12 h and 24 h
Text: To understand the transcriptomic changes underlying (−)-20 effects on GBM CSCs, the inventors performed RNA sequencing experiments in these cells. […] Furthermore, upon compound treatment, the inventors observed the downregulation of several hallmark gene sets associated with critical cellular processes, including apoptosis, glycolysis, MTORC1 signaling, NOTCH signaling, epithelial-mesenchymal transition (EMT), and angiogenesis (FIGS. 5D and 18A). […] This observation emphasizes the complexity of cell death mechanisms and the potential origins of selectivity of (−)-20 against CSCs. […] (FIG. 5E).
RNA Sequencing and Analysis: GBM0308 cells cultured in NBE medium were treated with compound (−)-20 at concentrations of 0.1 μM, 1 μM and DMSO. At 12 h and 24 h timepoints, total RNA was extracted using RNeasy mini kit (Qiagen) as per the manufacturer's instruction. Preparation of the RNA library and transcriptome sequencing were conducted by Novogene. […]

GBM0308 neurospheres [2] = experiment: Neurosphere formation assay (single neurosphere, PI/Hoechst); format: cell-based; details: three days treatment
Method: as §1
Neurosphere Formation Assays: Single neurospheres were generated by seeding GBM0308 cells (400 cells per well) in a 384-well ultra-low attachment round bottom microplate (Nexcelom Bioscience, ULA-384 U). The plates were then centrifuged at 300×g for 10 minutes to cluster cells at the bottom of the wells, followed by incubation at 37° C. and 5% CO2 for 4 days to allow the formation of single neurospheres and treated with either DMSO or drugs at concentrations of 3.3, 1.11, 0.37, 0.12, 0.041, 0.013, 0.004 μM. On Day 7, neurospheres were stained with propidium iodide and Hoechst, as described above. The “neurosphere 1+Mask” application was used to measure the fluorescent intensities of PI, using Celigo cytometer as described previously.^70

BT112 CSCs = experiment: Dose-response killing of CSCs in BT112 glioblastoma cell line; format: cell-based; details: Homo sapiens, read-out: CSC EC50
Method: Cell Culture: Glioblastoma stem cell lines GBM0308, BT145, and BT112 were cultured in neurobasal (NBE medium) containing N-2 and B-27 supplements, EGF, bFGF, L-glutamine, and Penicillin-Streptomycin), as described previously.^19 Adherent GBM cells were cultured in serum-containing DMEM media (Invitrogen) supplemented with 10% fetal bovine serum (Corning Cellgro™). Cells were incubated at 37° C. and 5% CO2 to allow neurosphere formation. For seeding and subculturing, the neurospheres were gently trypsinized with 0.025% trypsin to form a single-cell suspension.
Dose-Response Testing in GBM Cells: Briefly, on day 1, cells were seeded in triplicate. For CSCs, 1500 cells/well were plated in a low attachment 96-well plate with NBE media and incubated for 3 days at 37° C. and 5% CO2 to allow the formation of neurospheres. For non-CSCs, 3000 cells/well were plated in a 96-well plate with DMEM media supplemented with 10% FBS. Similarly, the assay plates were also incubated for the same duration. Compound treatments started on day 4. […] After incubation, plates were read by Celigo imaging cytometer using an inbuilt Celigo application; Cell Viability (Dead+Total). For the viability measurement, the total number of neurospheres/cells and dead neurospheres/cells in each well were counted by the cytometer. […]

With `COc1cc(OC)c2c(c1)O[C@@]1(c3ccc(Br)cc3)[C@H](c3ccccc3)[C@@H](C(=O)NS(=O)(=O)N(C)C)[C@@H](O)[C@@]21O` [(−)-20, (1R,2R,3S,3aR,8bS)-3a-(4-bromophenyl)-N—(N,N-dimethylsulfamoyl)-1,8b-dihydroxy-6,8-dimethoxy-3-phenyl-2,3,3a,8b-tetrahydro-1H-cyclopenta[b]benzofuran-2-carboxamide] the “Annexin V/PI staining (apoptosis)” value (GBM0308 cells (CSCs)) was “induced apoptosis”, the “caspase 3/7 staining” value (GBM0308 neurospheres [1]) was “positive staining” and the “expression of genes involved in stem cell maintenance and survival (NOTCH1, NOTCH2, NOTCH3, SALL3, SOX2)” value (GBM0308 stem cells) was “downregulated”. The “concentration from which cytotoxic effects on CSC neurospheres are seen (PI staining)” value (GBM0308 neurospheres [2]) was ≥ 120 nM, the “effect on neurosphere size, in words” value (GBM0308 neurospheres [2]; varying doses) was “dose-dependent reduction in neurosphere size” and the pEC50 (BT112 CSCs) was 7.47.
